In patent US8278338B2 (priority 2004, dated 2012):
Where two headings read alike, the source gives them in different places.

Columns and labels:
human μ-opiate receptor = target: T1, human μ-opiate receptor (Homo sapiens, UniProt P35372); test: Affinity for the human μ-opiate receptor, [3H]-naloxone displacement (SPA) on CHO-K1 receptor membrane preparation; assay type: binding; conditions: for μ-Opioid receptor affinity (% inhibition at 1 μmol./l): 1 μmol./l test substance
T1 construct: purchased Perkin Elmer, Zaventem, Belgium RB-HOM; host or cells: CHO-K1 cells
Method: The receptor affinity for the human μ-opiate receptor was determined in a homogeneous batch on microtitre plates. To that end, serial dilutions of the substances to be tested were incubated for 90 minutes at room temperature with a receptor membrane preparation (15-40 μg of protein/250 μl of incubation batch) of CHO-K1 cells, which express the human μ-opiate receptor (RB-HOM receptor membrane preparation from Perkin Elmer, Zaventem, Belgium), in the presence of 1 nmol./l of the radioactive ligand [^3H]-naloxone (NET719, Perkin Elmer, Zaventem, Belgium) and 1 mg of WGA-SPA beads (wheatgerm agglutinin SPA beads from Amersham/Pharmacia, Freiburg, Germany) in a total volume of 250 μl. The incubation buffer used was 50 mmol./l of Tris-HCl supplemented with 50 μM MgCl2 and 0.05% bovine serum albumin. In order to determine non-specific binding, 100 μmol./l of naloxone were additionally added. When the ninety-minute incubation time was complete, the microtitre plates were centrifuged off for 20 minutes at 1000 g and the radioactivity was measured in a β-counter (Microbeta-Trilux, PerkinElmer, Freiburg, Germany). The percentage displacement of the radioactive ligand from its binding to the human μ-opiate receptor at a concentration of the test substances of 1 μmol./l was determined and stated as the percentage inhibition of specific binding. […] Ki values for the test substances were obtained by conversion by means of the Cheng-Prusoff equation (Cheng and Prusoff 1973).

5-HT reuptake = 5-HT reuptake (Rattus norvegicus, UniProt P31652); test: biochemical; conditions: for inhibition at 10 µM: read-out: Inhibition of 5-HT reuptake (% inhibition at 10 μmol./l), 10 μmol./l
Source text: In order to be able to carry out these in vitro studies, synaptosomes were freshly isolated from areas of rat brain. […] For NA reuptake, these vesicular particles were isolated from the hypothalamus of male rat brains, and for 5HT reuptake, they were isolated from the medulla+pons region.
The IC50 values were obtained with the aid of the “Figure P” computer program (Version 6.0, Biosoft, Cambridge, England). […] The “Ligand” computer program (Version 4, Biosoft, England) was used to show KD values.

NA reuptake = target: T2, NA reuptake (Rattus norvegicus, UniProt Q63380); test: Inhibition of NA reuptake in rat brain synaptosomes (hypothalamus, P2 fraction); assay type: biochemical; conditions: for inhibition at 10 µM: 10 μmol./l
T2 construct: isolated from the hypothalamus of male rat brains; from tissue; host or cells: rat brain synaptosomes (P2 fraction), hypothalamus of male rats
Method: In order to be able to carry out these in vitro studies, synaptosomes were freshly isolated from areas of rat brain. A so-called “P2” fraction was used in each case, which was prepared exactly according to the procedure of Gray, E. G. and Whittaker, V. P. (1962, J. Anat. […], 79-88). For NA reuptake, these vesicular particles were isolated from the hypothalamus of male rat brains, and for 5HT reuptake, they were isolated from the medulla+pons region.
IC50 values were obtained thereby which can be converted into inhibitor constants (Ki) according to the “Cheng-Prusoff equation” (Cheng, Y. C. and Prusoff, W. H., 1973, Biochem. Pharmacol. 22, 3099-3108). The IC50 values were obtained with the aid of the “Figure P” computer program (Version 6.0, Biosoft, Cambridge, England). Km values were calculated according to Lineweaver, H. and Burk, D. (1934, J. Am. Chem. Soc. 56, 658-666). The “Ligand” computer program (Version 4, Biosoft, England) was used to show KD values.

mouse = test: Formalin test in the mouse (phase 2, chronic pain component); assay type: in vivo; conditions: for ED50: iv, read-out: Inhibition of the nociceptive behaviour versus control, ED50 value
Method: (§1) The formalin test (Dubuisson, D. and Dennis, S. G., 1977, Pain, 4, 161-174) represents a model for acute and chronic pain. By means of a single formalin injection into the dorsal side of a rear paw, a biphase nociceptive reaction was induced in freely mobile test animals; the reaction was assessed by observing three behaviour patterns which are clearly distinguishable from one another. The reaction is two-phase: phase 1=immediate reaction (duration up to 10 minutes; shaking of the paw, licking), phase 2=late reaction (after a rest phase; likewise shaking of the paw, licking; duration up to 60 minutes). The first phase reflects a direct stimulation of the peripheral nocisensors with a high spinal nociceptive input or glutamate release (acute pain phase); the second phase reflects a spinal and peripheral hypersensitisation (chronic pain phase). In the studies presented here, the chronic pain component (phase 2) was evaluated.
Formalin was administered subcutaneously in a volume of 20 μl and a concentration of 1% into the dorsal side of the right rear paw of each animal. The specific behavioural changes, such as lifting and shaking of the paw (score 3), were observed and recorded over an observation period of from 21 to 24 minutes after the formalin injection. The size of the group was 10 animals (n=10).
(§2) On the basis of the PR calculations, the activity of the substance was determined in percent as the change relative to a control. The ED50 was determined by means of regression analysis.

rat = test: Formalin test in the rat (phase 2, chronic pain component); assay type: in vivo
Method: as §1
Formalin was administered subcutaneously in a volume of 50 μl and a concentration of 5% into the dorsal side of the right rear paw of each animal. The specific behavioural changes, such as lifting and shaking of the paw, weight shifting of the animal and biting and licking reactions, were observed and recorded over an observation period of from 21 to 27 minutes after the formalin injection. The various behaviours were combined to give the so-called pain rate (PR) which, based on 3-minute intervals, represents the calculation of a mean nociceptive reaction. The PR was calculated on the basis of a numerical weighting (=in each case factor 1, 2, 3) of the observed behaviours (corresponding to behaviour score 1, 2, 3) and was calculated using the following formula:
The size of the group was 10 animals (n=10).
as §2

[1] = rat synaptosomes, Cheng-Prusoff
[2] = Cheng-Prusoff from IC50, [3H]-naloxone 1 nmol./l, read-out: μ-Opioid receptor affinity, Ki
[3] = inhibition of specific [3H]-naloxone binding

T1 sequence (P35372 whole entry): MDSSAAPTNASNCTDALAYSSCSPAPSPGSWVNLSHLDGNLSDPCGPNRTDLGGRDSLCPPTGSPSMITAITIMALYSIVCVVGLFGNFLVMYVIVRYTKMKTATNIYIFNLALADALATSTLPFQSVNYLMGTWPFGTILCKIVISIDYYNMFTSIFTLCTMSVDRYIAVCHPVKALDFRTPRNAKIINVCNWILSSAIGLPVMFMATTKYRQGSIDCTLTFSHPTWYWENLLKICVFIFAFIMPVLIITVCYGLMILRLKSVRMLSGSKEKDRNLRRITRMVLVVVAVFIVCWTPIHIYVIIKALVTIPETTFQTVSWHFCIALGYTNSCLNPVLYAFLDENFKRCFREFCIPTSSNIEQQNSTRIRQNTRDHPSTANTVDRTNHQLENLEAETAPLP
Chain of 5-HT reuptake (P31652 whole entry): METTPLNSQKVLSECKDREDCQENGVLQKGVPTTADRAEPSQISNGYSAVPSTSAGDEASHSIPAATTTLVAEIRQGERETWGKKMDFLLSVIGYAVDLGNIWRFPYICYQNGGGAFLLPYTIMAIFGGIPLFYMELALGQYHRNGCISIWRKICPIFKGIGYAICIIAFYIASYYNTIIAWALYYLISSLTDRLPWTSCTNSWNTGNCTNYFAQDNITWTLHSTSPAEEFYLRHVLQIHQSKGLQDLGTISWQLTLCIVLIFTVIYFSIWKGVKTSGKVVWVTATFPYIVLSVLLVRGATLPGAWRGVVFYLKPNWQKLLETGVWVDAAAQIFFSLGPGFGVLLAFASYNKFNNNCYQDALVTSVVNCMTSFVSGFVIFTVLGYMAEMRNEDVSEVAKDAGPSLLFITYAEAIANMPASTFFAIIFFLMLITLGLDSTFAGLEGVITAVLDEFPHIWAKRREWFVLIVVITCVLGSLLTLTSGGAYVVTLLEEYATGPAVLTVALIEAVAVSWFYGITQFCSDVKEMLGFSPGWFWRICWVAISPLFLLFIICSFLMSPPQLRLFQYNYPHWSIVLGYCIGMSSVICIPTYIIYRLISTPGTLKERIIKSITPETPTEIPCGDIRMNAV
T2 sequence (Q63380 1-617): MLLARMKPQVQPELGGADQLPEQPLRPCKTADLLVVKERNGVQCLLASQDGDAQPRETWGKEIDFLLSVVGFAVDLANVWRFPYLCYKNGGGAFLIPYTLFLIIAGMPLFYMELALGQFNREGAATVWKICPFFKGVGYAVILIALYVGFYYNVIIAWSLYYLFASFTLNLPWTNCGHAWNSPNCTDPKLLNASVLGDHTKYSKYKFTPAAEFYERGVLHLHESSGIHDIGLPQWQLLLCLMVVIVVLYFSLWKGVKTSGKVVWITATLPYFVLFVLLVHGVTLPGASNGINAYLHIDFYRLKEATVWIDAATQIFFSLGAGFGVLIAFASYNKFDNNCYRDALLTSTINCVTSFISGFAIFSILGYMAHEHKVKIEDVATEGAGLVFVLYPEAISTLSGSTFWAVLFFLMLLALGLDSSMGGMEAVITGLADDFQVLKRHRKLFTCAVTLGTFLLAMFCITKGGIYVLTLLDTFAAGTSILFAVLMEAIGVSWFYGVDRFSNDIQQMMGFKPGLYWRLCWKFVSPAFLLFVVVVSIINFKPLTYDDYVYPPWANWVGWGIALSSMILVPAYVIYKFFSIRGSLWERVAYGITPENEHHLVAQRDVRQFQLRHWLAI

Row | SMILES | Ki (5-HT reuptake; [1]) | inhibition at 10 µM (NA reuptake) | inhibition at 10 µM (5-HT reuptake; rat synaptosomes) | Ki (human μ-opiate receptor; [2]) | μ-Opioid receptor affinity (% inhibition at 1 μmol./l) (human μ-opiate receptor; [3]) | other results
1 | CN(C)CC1=C(c2cccnc2)c2ccccc2C1 [Example 3, dimethyl-(3-pyridin-3-yl-1H-inden-2-ylmethyl)-amine] | 13 nM | 30% | – | – | – | Ki (human μ-opiate receptor): 240 nM; ED50 (mouse; phase 2, regression analysis): 3.32 mg/kg
2 | CN(C)CC1Cc2ccccc2C1c1cccnc1 (stereo not shown) [Example 4, dimethyl-(1-pyridin-3-yl-indan-2-ylmethyl)-amine] | – | 46% | 86% | – | – | inhibition at 1 µM (human μ-opiate receptor; 1.5 h, read-out: μ-Opioid receptor affinity (% inhibition at 1 μmol./l), 1 μmol./l test substance, inhibition of specific [3H]-naloxone binding): 31%; Inhibition of the nociceptive behaviour versus control (% inhibition) (rat; 4.64 mg/kg i.v., phase 2): −61.60%
3 | CN(C)CC1=C(c2cccnc2)c2ccc(O)cc2C1 [Example 7, 2-dimethylaminomethyl-1-pyridin-3-yl-3H-inden-5-ol] | – | 59% | – | 380 nM | – | Ki (5-HT reuptake): 25 nM; ED50 (rat; iv, phase 2, regression analysis, read-out: Inhibition of the nociceptive behaviour versus control, ED50 value): 2.93 mg/kg
4 | CN(C)CC1Cc2ccccc2C1(O)c1cccnc1 (single isomer, unassigned) [Example 2, 2-dimethylaminomethyl-1-pyridin-3-yl-indan-1-ol] | – | – | – | – | 60% | Inhibition of 5-HT reuptake (% inhibition at 10 μmol./l) (5-HT reuptake; 10 μmol./l, rat synaptosomes): 89%; Inhibition of NA reuptake (% inhibition at 10 μmol./l) (NA reuptake): 43%; Inhibition of the nociceptive behaviour versus control (% inhibition) (rat; 46.4 mg/kg i.v., phase 2): −80.6%
5 | COc1ccc(C(CN(C)C)C2(O)CCCCC2)cc1 (stereo not shown) [Venlafaxin, venlafaxin, reference compound] | – | – | – | – | −1% | Inhibition of the nociceptive behaviour versus control, ED50 value (mouse; i.v., phase 2, regression analysis): 2.60 mg/kg
6 | COc1ccc2c(c1)CC(CN(C)C)=C2c1cccnc1 [Example 6, (6-methoxy-3-pyridin-3-yl-1H-inden-2-ylmethyl)-dimethyl-amine] | 28 nM | 31% | – | – | – | Ki (human μ-opiate receptor): 150 nM; ED50 (mouse; phase 2, regression analysis): 1.64 mg/kg
7 | CN(C)CC1CCSc2ccccc2C1(O)c1cccnc1 (stereo not shown) [Example 13, 4-dimethylaminomethyl-5-pyridin-3-yl-2,3,4,5-tetrahydro-benzo[b]thiepin-5-ol] | – | 45% | 41% | – | −23% | Inhibition of the nociceptive behaviour versus control (% inhibition) (rat; 21.5 mg/kg i.v., phase 2, 21.5 mg/kg): −53.6%
8 | CN(C)CC1=C(c2cccnc2)c2ccccc2CCC1 [Example 12, dimethyl-(5-pyridin-3-yl-8,9-dihydro-7H-benzocyclohepten-6-ylmethyl)-amine] | 120 nM | 20% | – | 380 nM | – | Inhibition of the nociceptive behaviour versus control (% inhibition) (mouse; 14.7 mg/kg i.v., phase 2): −45.8%
9 | CN(C)CC1=C(c2cccnc2)c2ccccc2SCC1 [Example 15, dimethyl-(5-pyridin-3-yl-2,3-dihydro-benzo[b]thiepin-4-ylmethyl)-amine] | – | 36% | 60% | 320 nM | – | Inhibition of the nociceptive behaviour versus control (% inhibition) (rat; 10 mg/kg i.v., phase 2): −70.7%
